# In patent US6426355B1, “Heterocyclic carboxamide-containing thiourea inhibitors of herpes viruses containing phenylenediamine group” (American Home Products, priority 1998, dated 2002):
# What was measured:
# [1] = tested on: VZV strain Ellen; test: VZV Antiviral (ELISA) assay; format: cell-based; conditions: for IC50: Human alphaherpesvirus 3, VZV strain Ellen in HFF cells, read-out: IC50 (ug/ml) VZV; for IC50 (ug/ml) VZV / % inhibition 10 ug/ml VZV: VZV strain Ellen in HFF cells; for % inhibition 10 ug/ml VZV: at 10 ug/ml
# Method: For the generation of stock VZV to be used in the assay, VZV strain Ellen (ATCC #VR-1367) is used to infect human foreskin fibroblast (HFF) cells at low multiplicity (less than 0.1) and incubated overnight at 37° C. in 5% CO2. After the overnight incubation, the mixture of uninfected and VZV-infected HFF infected cells are then harvested and added to each well of 96-well plates (3.5×10^4 cells in 100 μl DMEM supplemented with 2% FBS) which contain test compound or the reference standard drug control (in 100 μl DMEM supplemented with 2% FBS per well). These cells are incubated for three days at 37° C. in 5% CO2, then fixed for ELISA assay. The primary antibody is murine anti-VZV glycoprotein II monoclonal antibody (Applied Biosystems, Inc. #13-145-100) and the secondary antibody is goat anti-mouse IgG linked to β-galactosidase. Thus the extent of viral replication is determined by assessing β-galactosidase activity by quantifying the generation of the 4-methyl umbelliferone fluorescent cleavage product after addition of the methyl umbelliferyl-β-D-galactoside (Sigma #M1633) substrate on a microfluorimeter (365 nm for excitation and 450 nm for emission). Antiviral activity (IC50) of the test compound is determined by comparing the flourescence obtained in absence of compound to that obtained in the presence of compound.
# [2] = tested on: HSV-1; test: HSV Antiviral (ELISA) assay; format: cell-based; conditions: for IC50: Human alphaherpesvirus 1, HSV-1 in Vero cells, read-out: IC50 (ug/ml) HSV; for IC50 (ug/ml) HSV: HSV-1 in Vero cells
# Method: Vero cells (ATCC #CCL-81) are plated on 96-well tissue culture plates at 3.5×10^4 cells per 100 μl tissue culture DMEM (Dulbecco's modified Eagle media) supplemented with 2% fetal bovine serum (FBS) in each well. After overnight incubation @ 37° C. (in 5% CO2) and 30 minutes prior to infection with HSV-1 (multiplicity of infection equal to 0.006), cells are either untreated, or treated with test compound (multiple concentrations) or reference standard drug control. After approximately 24 hours post-infection incubation @ 37° C. (in 5% CO2), cells are fixed for ELISA assay. The primary antibody is murine anti-HSV glycoprotein D monoclonal primary antibody and the secondary antibody is goat anti-mouse IgG linked to β-galactosidase. Thus the extent of viral replication is determined by assessing β-galactosidase activity by quantifying the generation of the 4-methyl umbelliferone fluorescent cleavage product after addition of the methyl umbelliferyl-β-D-galactoside (Sigma #M1633) substrate on a microfluorimeter (365 nm for excitation and 450 nm for emission). Antiviral activity (IC50) of the test compound is determined by comparing the flourescence obtained in absence of compound to that obtained in the presence of compound.
# [3] = tested on: HCMV recombinant mutant virus (RV145); test: HCMV microtiter plate assay (beta-glucuronidase reporter); format: cell-based, Human Cytomegalovirus; conditions: for IC50: Human betaherpesvirus 5, Fibroblast, read-out: IC50 (ug/ml) HCMV; for IC50 (ug/ml) HCMV: HCMV in human foreskin fibroblasts
# Outline: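 Replication was read out as virus-encoded β-glucuronidase activity, measured with a chromogenic or fluorogenic glucuronide substrate in cell lysates at 96 h post-infection. Infection of human foreskin fibroblasts with RV145 took place with compound present. IC50 was derived from a range of inhibitor amounts.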
Compound,IC50 (ug/ml) HSV [2],IC50 (ug/ml) HCMV [3],also measured
"O=C(Nc1ccc(NC(=O)c2csnn2)cc1)Nc1cc(Cl)cc(Cl)c1 [Example 86, [1,2,3]Thiadiazole-4-carboxylic acid {4-[3-(3,5-dichloro-phenyl)-ureido]-phenyl}-amide]",–,–,"IC50 [1]: > 10 µg/mL; inhibition at 10 µg/mL ([1]; Human alphaherpesvirus 3, read-out: % inhibition 10 ug/ml VZV, at 10 ug/ml, VZV strain Ellen in HFF cells): 32%; IC50 [2]: > 10 µg/mL; IC50 [3]: 0.04 µg/mL"
"O=C(Nc1ccc(NC(=O)c2ccco2)cc1)Nc1cc(C(F)(F)F)cc(C(F)(F)F)c1 [Example 88, Furan-2-carboxylic acid {4-[3-(3,5-bis-trifluoromethyl-phenyl)-ureido]-phenyl}-amide]",–,–,IC50 [1]: 0.03 µg/mL; IC50 [2]: > 10 µg/mL; IC50 [3]: 0.013 µg/mL
C[C@H](NC(=S)Nc1ccc(NC(=O)c2cscn2)nc1)c1cc(C(F)(F)F)cc(C(F)(F)F)c1 [Example 91],>10 µg/mL,0.018 µg/mL,IC50 (ug/ml) VZV [1]: >10 µg/mL; % inhibition 10 ug/ml VZV [1]: 6%
COc1cc(OC)c(NC(=S)Nc2ccc(NC(=O)c3ccc(C)s3)cc2)cc1Cl [Example 145],2 µg/mL,>10 µg/mL,IC50 (ug/ml) VZV [1]: >15 µg/mL; % inhibition 10 ug/ml VZV [1]: 51%
COc1cc(OC)c(NC(=S)Nc2ccc(NC(=O)c3cccc4cccnc34)cc2)cc1Cl [Example 146],>10 µg/mL,>10 µg/mL,IC50 (ug/ml) VZV [1]: >10 µg/mL; % inhibition 10 ug/ml VZV [1]: 14%
COc1cc(OC)c(NC(=S)Nc2ccc(NC(=O)c3cccn3C)cc2)cc1Cl [Example 147],10 µg/mL,>50 µg/mL,IC50 (ug/ml) VZV [1]: >10 µg/mL; % inhibition 10 ug/ml VZV [1]: 42%
COc1cc(OC)c(NC(=S)Nc2ccc(NC(=O)c3cc4ccccc4s3)cc2)cc1Cl [Example 153],2 µg/mL,>10 µg/mL,IC50 (ug/ml) VZV [1]: >10 µg/mL; % inhibition 10 ug/ml VZV [1]: 8%
COc1cc(OC)c(NC(=S)Nc2ccc(NC(=O)c3cc4ccccc4o3)cc2)cc1Cl [Example 154],4 µg/mL,10 µg/mL,IC50 (ug/ml) VZV [1]: >10 µg/mL; % inhibition 10 ug/ml VZV [1]: 23%
COc1cc(OC)c(NC(=S)Nc2ccc(NC(=O)c3ccncc3)cc2)cc1Cl [Example 155],5 µg/mL,5 µg/mL,IC50 (ug/ml) VZV [1]: >10 µg/mL; % inhibition 10 ug/ml VZV [1]: 22%
COc1cc(OC)c(NC(=S)Nc2ccc(NC(=O)c3nccc4ccccc34)cc2)cc1Cl [Example 158],4 µg/mL,>10 µg/mL,IC50 (ug/ml) VZV [1]: >15 µg/mL; % inhibition 10 ug/ml VZV [1]: 52%
COc1cc(OC)c(NC(=S)Nc2ccc(NC(=O)c3ccc4ccccc4n3)cc2)cc1Cl [Example 159],>10 µg/mL,>10 µg/mL,IC50 (ug/ml) VZV [1]: >10 µg/mL; % inhibition 10 ug/ml VZV [1]: 62%
COc1cc(OC)c(NC(=S)Nc2ccc(NC(=O)c3cccnc3)cc2)cc1Cl [Example 160],2.5 µg/mL,>10 µg/mL,IC50 (ug/ml) VZV [1]: >10 µg/mL; % inhibition 10 ug/ml VZV [1]: 27%
COc1cc(OC)c(NC(=S)Nc2ccc(NC(=O)c3ccc([N+](=O)[O-])o3)cc2)cc1Cl [Example 161],3 µg/mL,>10 µg/mL,IC50 (ug/ml) VZV [1]: 5 µg/mL; % inhibition 10 ug/ml VZV [1]: 113%
O=C(Nc1ccc(NC(=S)NCCc2ccc(Cl)c(Cl)c2)cc1)c1ccco1 [Example 718],6 µg/mL,0.02 µg/mL,–
O=C(Nc1ccc(NC(=S)NCCc2cc(F)cc(F)c2)cc1)c1csnn1 [Example 720],>10 µg/mL,0.01 µg/mL,–
O=C(Nc1ccc(NC(=S)NCCc2ccc([N+](=O)[O-])cc2)cc1)c1csnn1 [Example 722],>10 µg/mL,0.015 µg/mL,–
CC(Cc1ccccc1)NC(=S)Nc1ccc(NC(=O)c2csnn2)cc1 (centres unmarked) [Example 723],>10 µg/mL,0.03 µg/mL,–
O=C(Nc1ccc(NC(=S)NCc2cccc(C(F)(F)F)c2)cc1)c1csnn1 [Example 731],>10 µg/mL,0.007 µg/mL,–
O=C(Nc1ccc(NC(=S)NCCOc2cccc(Br)c2)cc1)c1csnn1 [Example 734],>10 µg/mL,0.009 µg/mL,–

Compound,IC50 (ug/ml) HSV [2],IC50 (ug/ml) HCMV [3],also measured
O=C(Nc1ccc(NC(=S)NCCOc2cc(C(F)(F)F)ccc2F)cc1)c1csnn1 [Example 737],>10 µg/mL,0.005 µg/mL,–
O=C(Nc1ccc(NC(=S)NCCc2ccccc2F)cc1)c1ccco1 [Example 738],>10 µg/mL,0.11 µg/mL,–
O=C(Nc1ccc(NC(=S)Nc2ccc(Br)cc2)cc1)c1csnn1 [Example 739],>10 µg/mL,0.02 µg/mL,–
O=C(Nc1ccc(NC(=S)NCc2ccc(F)cc2)cc1)c1csnn1 [Example 741],>10 µg/mL,0.02 µg/mL,–
O=C(Nc1ccc(NC(=S)NCc2ccc(Cl)cc2)cc1)c1csnn1 [Example 742],>10 µg/mL,0.009 µg/mL,–
O=C(Nc1ccc(NC(=S)NCc2ccc(Br)cc2)cc1)c1csnn1 [Example 743],>10 µg/mL,0.09 µg/mL,–
O=C(Nc1ccc(NC(=S)NCc2ccc(Cl)c(Cl)c2)cc1)c1cscn1 [Example 745],9 µg/mL,0.0025 µg/mL,–
O=C(Nc1ccc(NC(=S)NCc2cc(C(F)(F)F)ccc2F)cc1)c1cscn1 [Example 746],>10 µg/mL,0.005 µg/mL,–
CC(C)(C)c1ccc(CNC(=S)Nc2ccc(NC(=O)c3cscn3)cc2)cc1 [Example 747],>10 µg/mL,0.002 µg/mL,–
O=C(Nc1ccc(NC(=S)Nc2ccccc2F)cc1)c1csnn1 [Example 748],>10 µg/mL,0.28 µg/mL,–
O=C(Nc1ccc(NC(=S)NCCOc2cccc(I)c2)cc1)c1csnn1 [Example 750],>10 µg/mL,0.01 µg/mL,–
O=C(Nc1ccc(NC(=S)NCCc2ccc(F)c(C(F)(F)F)c2)cc1)c1csnn1 [Example 764],>10 µg/mL,0.004 µg/mL,–
O=C(Nc1ccc(NC(=S)NCCc2cccc(C(F)(F)F)c2F)cc1)c1csnn1 [Example 766],>10 µg/mL,0.006 µg/mL,–
O=C(Nc1ccc(NC(=S)NCCc2cccc(I)c2)cc1)c1csnn1 [Example 768],>10 µg/mL,0.005 µg/mL,–
O=C(Nc1ccc(NC(=S)NCCc2ccc(F)cc2C(F)(F)F)cc1)c1csnn1 [Example 769],>10 µg/mL,0.04 µg/mL,–
O=C(Nc1ccc(NC(=S)NCCc2cccc(Br)c2)cc1)c1csnn1 [Example 770],>10 µg/mL,0.006 µg/mL,–
"O=C(Nc1ccc(NC(=S)Nc2ccccc2Cl)cc1)c1ccccc1F [Example 998, N-{4-[3-(2-Chloro-phenyl)-thioureido]-phenyl}-2-fluoro-benzamide]",–,–,IC50 [2]: > 10 µg/mL; IC50 [3]: 0.016 µg/mL
"COC(=O)c1cccc(NC(=S)Nc2ccc(NC(=O)c3ccccc3F)cc2)c1 [Example 1000, 3-{3-[4-(2-Fluoro-benzoylamino)-phenyl]-thioureido}-benzoic acid methyl ester]",–,–,IC50 [2]: > 10 µg/mL; IC50 [3]: 0.39 µg/mL
"NC(=O)c1cccc(NC(=S)Nc2ccc(NC(=O)c3ccccc3F)cc2)c1 [Example 1002, N-[4-[[[[3-(Aminocarbonyl)phenyl]-amino]thioxomethyl]amino]phenyl]-2-fluoro-benzamide]",–,–,IC50 [2]: > 10 µg/mL; IC50 [3]: 0.07 µg/mL
